These results are taken from patent publication US8084466B2, “Bicyclic heteroaryl-substituted imidazoles as modulators of the histamine H4 receptor” (Janssen Pharmaceutica NV, priority 2007, dated 2011).

The assay deals with T1, human histamine H4 receptor (Homo sapiens, UniProt Q9H3N8).
T1 construct: expressed in transfected cells; host or cells: SK-N-MC cells or COS7 cells, transient transfection with pH4R; cell membranes
T1 sequence (Q9H3N8 whole entry): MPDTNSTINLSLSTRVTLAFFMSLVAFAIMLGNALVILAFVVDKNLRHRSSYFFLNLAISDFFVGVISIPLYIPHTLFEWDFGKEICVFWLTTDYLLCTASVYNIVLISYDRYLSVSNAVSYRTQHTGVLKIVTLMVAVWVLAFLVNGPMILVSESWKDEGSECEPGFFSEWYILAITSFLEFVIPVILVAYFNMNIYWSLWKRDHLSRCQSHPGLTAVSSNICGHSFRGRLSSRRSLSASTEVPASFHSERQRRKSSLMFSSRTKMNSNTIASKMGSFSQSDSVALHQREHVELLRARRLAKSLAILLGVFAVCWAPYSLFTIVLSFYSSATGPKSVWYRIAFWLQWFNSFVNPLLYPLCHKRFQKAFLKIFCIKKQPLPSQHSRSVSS
Nature of the assay: Binding Assay on Recombinant Human Histamine H4 Receptor. The conditions noted are these: competition binding with 3H-histamine (5 nM; KD 5 nM), membranes of SK-N-MC or COS7 cells expressing human H4 receptor; average of results; > = highest value tested. In a few lines:
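Membranes from SK-N-MC or COS7 cells transiently transfected with H4R incubated 45 min at room temperature with ³H-histamine; nonspecific binding defined with 10,000 nM histamine. Filtration and scintillation counting. Ki from competition with 5 nM ³H-histamine, using a KD of 5 nM.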
By Ki is commonly meant the dissociation constant of the complex between target and ligand, obtained from inhibition or displacement. Take `Cc1cc(C)c2nc(-c3ccc4c(c3)c(C)c(C)n4CCCC3CCNCC3)[nH]c2c1` [Example 89, 2-[2,3-Dimethyl-1-(3-piperidin-4-yl-propyl)-1H-indol-5-yl]-4,6-dimethyl-1H-benzoimidazole]: the Ki was 2000 nM.
Take `Cc1c(F)ccc2[nH]c(-c3cc4ccn(CCCC5CCN(C)CC5)c4cc3Cl)nc12` [Example 50, 2-{6-Chloro-1-[3-(1-methyl-piperidin-4-yl)-propyl]-1H-indol-5-yl}-5-fluoro-4-methyl-1H-benzoimidazole]: the inhibition constant (Ki) is 3330 nM.
On to `CC(C)(C)c1ccc2[nH]c(-c3cccc4c3ccn4CCCCC3CCNCC3)nc2c1` [Example 105, 5-tert-Butyl-2-[1-(4-piperidin-4-yl-butyl)-1H-indol-4-yl]-1H-benzoimidazole], for which the Ki was 2660 nM.
For the compound `Cc1cc(F)cc2[nH]c(-c3ccc4c(ncn4CCCC4CCNCC4)c3C)nc12` [Example 112, 6-Fluoro-4,4′-dimethyl-1′-(3-piperidin-4-yl-propyl)-1H,1′H-[2,5′]bibenzoimidazolyl], the Ki amounted to 251 nM.
Regarding `CN1CCC(CCCCn2cnc3cc(-c4nc5cc(F)ccc5[nH]4)ccc32)CC1` [Example 120, 5-Fluoro-1′-[4-(1-methyl-piperidin-4-yl)-butyl]-1H,1′H-[2,5′]bibenzoimidazolyl], the Ki came out at 3330 nM.
Next, `Cc1ccc2[nH]c(-c3ccc4c(c3)ncn4CCCCC3CCNCC3)nc2c1C` [Example 118]: 3000 nM.
